# Results: PubChem BioAssay AID1390 (Sanford-Burnham Center for Chemical Genomics, 2008)
# Calls of active or inactive are those of the source.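 The calls were made as follows: active = no band for the ATF-6 stress protein on the immunoblot of thapsigargin-stressed cell lysates; inactive = ATF-6 band still present, cleavage not blocked.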
# Tested on: CSM14.1 cells, thapsigargin, ATF-6 Western blot
# Experiment: ATF-6 protein induction inhibitors, late-stage follow-up, mechanism study for ER stress cell death inhibitors, cell-based, thapsigargin, Western blot (AID 1390)
row,Structure (SMILES),outcome
1,CSc1ccc(C2Nc3ccccc3NC3=C2C(=O)CC(c2ccccc2)C3)cc1 (stereo unspecified),inactive
2,COc1ccc(C2CC(=O)C3=C(C2)Nc2ccccc2NC3c2cccc(Br)c2)cc1OC (stereo unspecified),inactive
3,CCOc1cc(C2Nc3ccccc3NC3=C2C(=O)CC(c2ccc(OC)cc2)C3)cc(Cl)c1O (stereo unspecified),inactive
4,CCOc1cccc(C2Nc3ccccc3NC3=C2C(=O)CC(c2ccc(OC)cc2)C3)c1 (stereo unspecified),inactive
5,COc1ccc(C2CC(=O)C3=C(C2)Nc2ccccc2NC3c2cc(C)ccc2C)cc1 (stereo unspecified),inactive
6,CCCOc1ccc(C2Nc3ccccc3NC3=C2C(=O)CC(c2ccc(OC)c(OC)c2)C3)cc1 (stereo unspecified),inactive
7,O=C1CC(c2ccccc2)CC2=C1C(c1c(F)cccc1Cl)Nc1ccccc1N2 (stereo unspecified),inactive
8,COc1ccc(C2CC(=O)C3=C(C2)Nc2ccccc2NC3c2ccccc2C(F)(F)F)cc1OC (stereo unspecified),inactive
9,CC1(C)CC(=O)C2=C(C1)Nc1ccccc1NC2c1ccc(-c2ccccc2)cc1 (stereo unspecified),inactive
10,COc1ccc(C2CC(=O)C3=C(C2)Nc2ccccc2NC3c2cccc(Oc3ccccc3)c2)cc1OC (stereo unspecified),inactive
11,COc1ccc(C2CC(=O)C3=C(C2)Nc2ccccc2NC3c2cccc(C(F)(F)F)c2)cc1OC (stereo unspecified),inactive
